From patent US12509431B2, “1,4-dihydroquinazolinone compounds and uses thereof” (Edgewise Therapeutics, Inc., priority 2022, dated 2025)

Experiments:
Assay type in all cases: biochemical
Conditions in all cases: Table 8
[1] = tested on: Rabbit Skeletal myofibrils (rabbit psoas muscle); test: Myofibril ATPase assay (PK/LDH NADH-coupled), skeletal myofibrils
Procedure, shortened: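 Rabbit psoas myofibrils in pCa (PIPES/CaCl2/EGTA, pH 7.0) buffer; ADP coupled via PK/LDH to NADH loss, read at 340 nm every 1.5–2 min for 75 min. Slopes normalized to vehicle (100%) and fit to 4-parameter logistic for EC25, plus EC50 for inhibitors.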

[2] = target: T1, Porcine Ventricle myofibrils (left ventricle of Yucatan minipigs) (Sus scrofa, UniProt P79293); test: Myofibril ATPase assay (PK/LDH NADH-coupled), ventricle myofibrils
T1 construct: Myofibrils from porcine cardiac muscle was isolated from the left ventricle of Yucatan minipigs; tissue Exemplar Genetics; host or cells: left ventricle of Yucatan minipigs
T1 sequence (P79293 whole entry): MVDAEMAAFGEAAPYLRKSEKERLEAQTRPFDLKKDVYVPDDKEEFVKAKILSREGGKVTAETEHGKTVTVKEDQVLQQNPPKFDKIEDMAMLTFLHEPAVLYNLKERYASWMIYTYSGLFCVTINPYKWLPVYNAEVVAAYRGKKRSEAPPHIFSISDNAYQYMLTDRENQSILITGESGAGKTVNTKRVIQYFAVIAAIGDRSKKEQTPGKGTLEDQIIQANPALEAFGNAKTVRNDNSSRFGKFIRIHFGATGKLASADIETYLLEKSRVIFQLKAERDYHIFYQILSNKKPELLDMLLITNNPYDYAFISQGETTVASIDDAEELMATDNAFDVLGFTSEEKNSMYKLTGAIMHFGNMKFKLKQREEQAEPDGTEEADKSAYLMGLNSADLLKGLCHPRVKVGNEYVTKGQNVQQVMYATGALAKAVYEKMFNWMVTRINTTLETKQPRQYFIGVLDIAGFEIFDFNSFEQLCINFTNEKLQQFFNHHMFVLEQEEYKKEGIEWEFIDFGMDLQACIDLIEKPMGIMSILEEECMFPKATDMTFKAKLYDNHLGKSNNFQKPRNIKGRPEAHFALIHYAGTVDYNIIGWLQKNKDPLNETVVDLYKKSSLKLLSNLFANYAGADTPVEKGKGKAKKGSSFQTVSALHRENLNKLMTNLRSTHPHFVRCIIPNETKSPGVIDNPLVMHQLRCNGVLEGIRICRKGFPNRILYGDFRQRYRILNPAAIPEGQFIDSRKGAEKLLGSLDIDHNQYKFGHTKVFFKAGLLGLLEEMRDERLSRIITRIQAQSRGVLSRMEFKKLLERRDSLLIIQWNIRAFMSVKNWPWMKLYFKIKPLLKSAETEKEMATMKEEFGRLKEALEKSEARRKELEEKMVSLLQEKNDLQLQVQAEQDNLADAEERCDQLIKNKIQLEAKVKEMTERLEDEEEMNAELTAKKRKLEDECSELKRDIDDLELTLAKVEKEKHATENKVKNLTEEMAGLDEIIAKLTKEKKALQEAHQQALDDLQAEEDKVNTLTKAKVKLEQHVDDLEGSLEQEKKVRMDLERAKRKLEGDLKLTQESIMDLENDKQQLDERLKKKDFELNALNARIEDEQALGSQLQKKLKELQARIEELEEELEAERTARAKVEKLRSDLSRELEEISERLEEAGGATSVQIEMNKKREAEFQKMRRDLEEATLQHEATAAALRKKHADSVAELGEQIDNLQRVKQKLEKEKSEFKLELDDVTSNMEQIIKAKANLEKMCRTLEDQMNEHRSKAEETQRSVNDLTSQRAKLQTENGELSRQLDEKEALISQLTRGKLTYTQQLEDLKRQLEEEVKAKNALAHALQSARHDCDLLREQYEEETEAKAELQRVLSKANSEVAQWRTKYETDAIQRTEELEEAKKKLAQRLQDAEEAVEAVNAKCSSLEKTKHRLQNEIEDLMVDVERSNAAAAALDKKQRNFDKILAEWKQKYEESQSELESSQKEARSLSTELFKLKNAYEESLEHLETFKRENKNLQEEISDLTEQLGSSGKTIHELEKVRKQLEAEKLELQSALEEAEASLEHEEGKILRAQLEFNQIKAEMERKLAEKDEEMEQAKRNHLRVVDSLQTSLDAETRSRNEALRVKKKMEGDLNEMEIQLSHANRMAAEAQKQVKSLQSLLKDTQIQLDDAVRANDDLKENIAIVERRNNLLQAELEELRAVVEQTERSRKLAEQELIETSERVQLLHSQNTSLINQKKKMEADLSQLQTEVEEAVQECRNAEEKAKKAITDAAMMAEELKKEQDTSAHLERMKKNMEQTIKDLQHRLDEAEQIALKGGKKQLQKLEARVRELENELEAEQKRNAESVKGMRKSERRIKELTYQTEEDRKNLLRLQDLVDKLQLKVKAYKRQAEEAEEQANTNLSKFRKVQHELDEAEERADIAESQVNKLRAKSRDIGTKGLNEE
Procedure, shortened: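 Yucatan minipig left-ventricle myofibrils; ATPase measured by PK/LDH-coupled NADH loss at 340 nm, read every 1.5-2 min for 75 min. Slopes normalized to vehicle (100%) and fit to 4-parameter logistic model; EC25 and, for inhibitors, EC50 calculated.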

[3] = tested on: Porcine Atria myofibrils; test: Myofibril ATPase assay (PK/LDH NADH-coupled), atria myofibrils
Procedure, shortened: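 Porcine atrial myofibril ATPase followed via PK/LDH-coupled NADH depletion, absorbance at 340 nm read every 1.5-2 min over 75 min. Slopes (mAU/min) normalized to vehicle as 100% and fit to a 4-parameter logistic; EC25% derived, plus EC50% for inhibitors.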

| Structure (SMILES) | Rabbit Psoas IC25 [1] | Porcine Ventricle IC25 [2] | Porcine Atria IC25 [3] |
| --- | --- | --- | --- |
| C[C@@H](NC(=O)CN1Cc2c(ccc(F)c2F)NC1=O)c1ccc(C#N)cn1 [Compound B135] | 1.618 µM | 15.88 µM | 0.51 µM |
| C[C@H](NC(=O)CN1Cc2c(ccc(F)c2F)NC1=O)c1ccc(C#N)cn1 [Compound B136] | 0.0645 µM | 0.764 µM | 0.42 µM |
| C[C@@H](NC(=O)CN1C(=O)Nc2ccc(F)cc2C12CC2)c1ccc(C#N)cn1 [Compound B137] | 0.1155 µM | 0.6995 µM | 0.12 µM |
| C[C@H](NC(=O)CN1C(=O)Nc2ccc(F)cc2C12CC2)c1ccc(C#N)cn1 [Compound B138] | 100 µM | 100 µM | 1.53 µM |
| N#Cc1c(F)ccc2c1CN(CC(=O)N[C@@H]1COc3cc(F)cc(F)c31)C(=O)N2 [Compound B139] | 0.01393 µM | 0.1215 µM | 0.05 µM |
| N#Cc1c(F)ccc2c1CN(CC(=O)N[C@H]1COc3cc(F)cc(F)c31)C(=O)N2 [Compound B140] | 1.501 µM | 55.23 µM | 1.10 µM |
| C[C@@H](NC(=O)CN1Cc2cc(C#N)ccc2NC1=O)c1ncc(C#N)cc1F [Compound B143] | 100 µM | 100 µM | 100.00 µM |
| C[C@H](NC(=O)CN1Cc2cc(C#N)ccc2NC1=O)c1ncc(C#N)cc1F [Compound B144, 2-(6-cyano-2-oxo-1,4-dihydroquinazolin-3-yl)-N-[(1S)-1-(5-cyano-3-fluoropyridin-2-yl)ethyl]acetamide] | 2.787 µM | 47.42 µM | 0.72 µM |
| O=C(CN1Cc2cc(F)ccc2NC1=O)N[C@H]1COc2cc(F)cc(F)c21 [Compound B146] | 5.163 µM | 68.33 µM | 1.52 µM |
| O=C(CN1Cc2c(ccc(F)c2F)NC1=O)N[C@H]1COc2cc(F)cc(F)c21 [Compound B148] | 0.4985 µM | 5.833 µM | 0.85 µM |
| C[C@@H](NC(=O)CN1C(=O)Nc2ccc(C#N)cc2C12CC2)c1ncc(F)cc1F [Compound B149] | 0.1803 µM | 100 µM | 73.55 µM |
| C[C@H](NC(=O)CN1C(=O)Nc2ccc(C#N)cc2C12CC2)c1ncc(F)cc1F [Compound B150] | 100 µM | 22.65 µM | 0.98 µM |
| C[C@@H](NC(=O)CN1Cc2c(C#N)cccc2NC1=O)c1ncc(F)cc1F [Compound B153] | 0.5161 µM | 100 µM | 16.33 µM |
| C[C@H](NC(=O)CN1Cc2c(C#N)cccc2NC1=O)c1ncc(F)cc1F [Compound B154] | 0.0315 µM | 2.518 µM | 0.18 µM |
| C[C@H](NC(=O)CN1C(=O)Nc2ccccc2[C@H]1C)c1ccc(F)cc1F [Compound B155] | 0.0851 µM | 3.17 µM | 0.43 µM |
| C[C@H](NC(=O)CN1C(=O)Nc2ccccc2[C@H]1C)c1ccc(F)cc1F [Compound B156] | 0.232 µM | 10.58 µM | 4.12 µM |
| CC(NC(=O)CN1Cc2cc(C#N)ccc2NC1=O)c1ncc(C#N)cc1F (stereo not drawn) [Compound B157] | 100 µM | 100 µM | 5.96 µM |
| C[C@@H]1c2ccccc2NC(=O)N1CC(=O)N[C@H](C)c1ncc(F)cc1F [Compound B158] | 18.11 µM | 100 µM | 100.00 µM |
| C[C@@H](NC(=O)CN1C(=O)Nc2ccccc2[C@@H]1C)c1ncc(F)cc1F [Compound B159] | 100 µM | 100 µM | 100.00 µM |
| C[C@H](NC(=O)CN1Cc2c(ccc(C#N)c2F)NC1=O)c1ccc(F)cc1F [Compound B160, 2-(6-Cyano-5-fluoro-2-oxo-1,4-dihydroquinazolin-3-yl)-N-[(1S)-1-(2,4-difluorophenyl)ethyl]acetamide] | 0.3154 µM | 4.311 µM | 0.36 µM |
| C[C@H](NC(=O)CN1C(=O)Nc2ccccc2[C@H]1C)c1ncc(F)cc1F [Compound B161] | 1.295 µM | 45.8 µM | 4.15 µM |
| C[C@H](NC(=O)CN1C(=O)Nc2ccccc2[C@@H]1C)c1ncc(F)cc1F [Compound B162] | 0.7039 µM | 100 µM | 52.14 µM |

| Structure (SMILES) | Rabbit Psoas IC25 [1] | Porcine Ventricle IC25 [2] | Porcine Atria IC25 [3] |
| --- | --- | --- | --- |
| C[C@@H](NC(=O)CN1C(=O)Nc2ccc(F)cc2C12CC2)c1ncc(F)cc1F [Compound B163] | 0.4728 µM | 31.68 µM | 2.08 µM |
| C[C@H](NC(=O)CN1C(=O)Nc2ccc(F)cc2C12CC2)c1ncc(F)cc1F [Compound B164] | 0.0273 µM | 0.3444 µM | 0.10 µM |
| C[C@@H]1c2ccccc2NC(=O)N1CC(=O)N[C@@H](CO)c1ncc(F)cc1F [Compound B165] | 100 µM | 100 µM | 17.36 µM |
| C[C@H]1c2ccccc2NC(=O)N1CC(=O)N[C@@H](CO)c1ncc(F)cc1F [Compound B166] | 6.966 µM | 100 µM | 51.60 µM |
| C[C@@H](C(=O)N[C@H](CO)c1ncc(F)cc1F)N1Cc2c(Cl)cccc2NC1=O [Compound B167] | 100 µM | 100 µM | 100.00 µM |
| C[C@H](C(=O)N[C@H](CO)c1ncc(F)cc1F)N1Cc2c(Cl)cccc2NC1=O [Compound B168] | 100 µM | 100 µM | 100.00 µM |
| C[C@@H](C(=O)N[C@@H](CO)c1ncc(F)cc1F)N1Cc2c(Cl)cccc2NC1=O [Compound B169] | 0.3955 µM | 1.354 µM | 0.15 µM |
| C[C@H](C(=O)N[C@@H](CO)c1ncc(F)cc1F)N1Cc2c(Cl)cccc2NC1=O [Compound B170] | 9.578 µM | 31.8 µM | 2.85 µM |
| C[C@@H](NC(=O)CN1Cc2cc(F)ccc2NC1=O)c1ccc(C#N)cn1 [Compound B171] | 7.545 µM | 100 µM | 19.79 µM |
| C[C@@H](NC(=O)CN1Cc2cc(F)ccc2NC1=O)c1ncccc1F [Compound B173] | 100 µM | 100 µM | 100.00 µM |
| C[C@H](NC(=O)CN1Cc2cc(F)ccc2NC1=O)c1ncccc1F [Compound B174] | 83 µM | 100 µM | 46.54 µM |
| O=C(CN1Cc2c(ccc(F)c2F)NC1=O)N[C@H](CO)c1ncc(F)cc1F [Compound B175] | 100 µM | 100 µM | 100.00 µM |
| O=C(CN1Cc2c(ccc(F)c2F)NC1=O)N[C@@H](CO)c1ncc(F)cc1F [Compound B176] | 0.08998 µM | 0.3872 µM | 0.06 µM |
| C[C@@H](NC(=O)CN1Cc2cc(F)ccc2NC1=O)c1ccc(F)cc1F [Compound B177] | 68.51 µM | 100 µM | 100.00 µM |
| COc1cnc([C@@H](C)NC(=O)CN2Cc3cc(F)ccc3NC2=O)c(F)c1 [Compound B178] | 3.38 µM | 100 µM | 3.48 µM |
| O=C(CN1Cc2cc(F)ccc2NC1=O)N[C@H](CO)c1ncc(F)cc1F [Compound B180] | 100 µM | 100 µM | 100.00 µM |
| Cc1cccnc1[C@@H](C)NC(=O)CN1Cc2c(ccc(F)c2F)NC1=O [Compound B182] | 1.159 µM | 100 µM | 2.28 µM |
| Cc1cccnc1[C@H](C)NC(=O)CN1Cc2c(ccc(F)c2F)NC1=O [Compound B183] | 100 µM | 100 µM | 100.00 µM |
| COc1cccnc1[C@@H](C)NC(=O)CN1Cc2c(ccc(F)c2F)NC1=O [Compound B184] | 100 µM | 56.86 µM | 57.48 µM |
| COc1cccnc1[C@H](C)NC(=O)CN1Cc2c(ccc(F)c2F)NC1=O [Compound B185] | 100 µM | 100 µM | 100.00 µM |
| COc1cccnc1[C@@H](C)NC(=O)CN1Cc2cc(F)ccc2NC1=O [Compound B186] | 100 µM | 100 µM | 100.00 µM |
